Data taken from patent publication EP0000636A1, “Penem compounds, processes for their preparation, their use in pharmaceutical compositions and azetidinones used in their preparation” (GLAXO GROUP LIMITED, priority 1977, dated 1979).
In brackets after ≈: the same amount, converted by molar mass. Where two headings read alike, the source gives them in different places.

Assays:
H. influenzae 1184E = experiment: Determination of Minimum Inhibitory Concentrations (MIC), agar dilution; assay type: cell-based; details: Haemophilus influenzae
Excerpt: (§1) Biological testing of a number of compounds of the invention has provided the results shown below;-the test compounds are identified by their Example Numbers: 1. Determination of Minimum Inhibitory Concentrations (MIC)
(§2) Serial two-fold dilutions of freshly prepared test solutions were made into Oxoid No. 1 Nutrient agar with or without added enrichment and poured into petri diches. Plates were inoculated with a multipoint inoculator with inoculum containing approximately 10^5 colony forming units of the organisms shown in the following Tables, all of which organisms are clinical isolates. The MIC, quoted in the Tables as µg/ml, was read after 18 hours incubation at 37°C as the lowest concentration which inhibited growth.. N.T. means not tested.

E. cloacae 1051E = experiment: as above; assay type: cell-based; details: Enterobacter cloacae
Excerpt: as §1, §2

Staph.aureus 853E = experiment: as above; assay type: cell-based; details: Staphylococcus aureus
Excerpt: as §1, §2

E. coli 851E = experiment: as above; assay type: cell-based; details: Escherichia coli
Excerpt: as §1, §2

E. cloacae 1321E = experiment: as above; assay type: cell-based; details: Enterobacter cloacae
Excerpt: as §1, §2

K. aerogenes 1522E = experiment: as above; assay type: cell-based; details: Klebsiella aerogenes
Excerpt: as §1, §2

S. marcescens 1324E = experiment: as above; assay type: cell-based; details: Serratia marcescens
Excerpt: as §1, §2

Toxicity (LD50) in mice = details: mouse, in vivo, ip; administered intraperitoneally to mice
Micrococcus Sp 1810E = experiment: Determination of Minimum Inhibitory Concentrations (MIC), agar dilution; assay type: cell-based; details: SP1810E
Excerpt: as §1, §2

[1] = H. influenzae 1184E, clinical isolate, Oxoid No. 1 Nutrient agar, approximately 10^5 colony forming units, 18 hours at 37°C, read-out: MIC
[2] = E. cloacae 1051E, clinical isolate, Oxoid No. 1 Nutrient agar, approximately 10^5 colony forming units, 18 hours at 37°C, read-out: MIC
[3] = Staph.aureus 853E, clinical isolate, Oxoid No. 1 Nutrient agar, approximately 10^5 colony forming units, 18 hours at 37°C, read-out: MIC
[4] = E. coli 851E, clinical isolate, Oxoid No. 1 Nutrient agar, approximately 10^5 colony forming units, 18 hours at 37°C, read-out: MIC
[5] = E. cloacae 1321E, clinical isolate, Oxoid No. 1 Nutrient agar, approximately 10^5 colony forming units, 18 hours at 37°C, read-out: MIC
[6] = K. aerogenes 1522E, clinical isolate, Oxoid No. 1 Nutrient agar, approximately 10^5 colony forming units, 18 hours at 37°C, read-out: MIC
[7] = S. marcescens 1324E, clinical isolate, Oxoid No. 1 Nutrient agar, approximately 10^5 colony forming units, 18 hours at 37°C, read-out: MIC
[8] = Micrococcus Sp 1810E, clinical isolate, Oxoid No. 1 Nutrient agar, approximately 10^5 colony forming units, 18 hours at 37°C, read-out: MIC

SMILES | MIC (H. influenzae 1184E; [1]) [µg/mL] | MIC (E. cloacae 1051E; [2]) [µg/mL] | MIC (Staph.aureus 853E; [3]) [µg/mL] | MIC (E. coli 851E; [4]) [µg/mL] | MIC (E. cloacae 1321E; [5]) [µg/mL] | MIC (K. aerogenes 1522E; [6]) [µg/mL] | MIC (S. marcescens 1324E; [7]) [µg/mL] | LD50 (Toxicity (LD50) in mice) [mg/kg] | MIC (H. influenzae 1184E; 1184E, 18 h) [µg/mL] | MIC (E. cloacae 1051E; 1051E, 18 h) [µg/mL] | MIC (Staph.aureus 853E; 853E, 18 h) [µg/mL] | MIC (E. coli 851E; 851E, 18 h) [µg/mL] | MIC (E. cloacae 1321E; 1321E, 18 h) [µg/mL] | MIC (K. aerogenes 1522E; 1522E, 18 h) [µg/mL] | MIC (Micrococcus Sp 1810E; Micrococcus, 18 h) [µg/mL] | MIC (S. marcescens 1324E; 1324E, 18 h) [µg/mL] | MIC (Micrococcus Sp 1810E; [8]) [µg/mL]
CCCCC1=C(C(=O)O)N2C(=O)CC2S1 (racemic) [Example 26, (5RS)2-n-Butylpen-2-em-3-carboxylic acid] | 4 (≈ 17.6 µM) | 125 (≈ 550 µM) | 0.5 (≈ 2.2 µM) | 31 (≈ 136 µM) | 31 (≈ 136 µM) | 31 (≈ 136 µM) | 31 (≈ 136 µM) | – | – | – | – | – | – | – | – | – | –
CCC1=C(C(=O)[O-])N2C(=O)CC2[S+]1[O-].[K+] (racemic) [Example 36, Potassium (5RS)-2-ethylpen-2-em-3-carboxylate-1-oxide] | – | – | – | – | – | – | – | > 500 | 2 | 8 | 0.5 | 8 | 8 | 8 | 0.1 | 8 | –
CC1=C(C(=O)O)N2C(=O)CC2S1 (single isomer, unassigned) [Example 6] | 4 (≈ 21.6 µM) | 16 (≈ 86.4 µM) | 1 (≈ 5.4 µM) | 8 (≈ 43.2 µM) | 8 (≈ 43.2 µM) | 16 (≈ 86.4 µM) | 8 (≈ 43.2 µM) | – | – | – | – | – | – | – | – | – | 0.2 (≈ 1.08 µM)
O=C(CCl)OCCC1=C(C(=O)[O-])N2C(=O)CC2S1.[K+] (racemic) [Example 57, Potassium (5RS)-2-[2-(2-chloroacetyl)oxyethyl]pen-2-em-3-carboxylate] | – | – | – | – | – | – | – | – | 4 | 16 | 0.5 | 8 | 8 | 8 | 0.2 | 8 | –
CCCC1=C(C(=O)O)N2C(=O)CC2S1 (racemic) [Example 28, (5RS)-2-ProD^ylpen-2-em-3-carboxylic acid] | 1 (≈ 4.69 µM) | 4 (≈ 18.8 µM) | < 0.1 | 0.5 (≈ 2.34 µM) | 0.5 (≈ 2.34 µM) | 0.5 (≈ 2.34 µM) | 1 (≈ 4.69 µM) | – | – | – | – | – | – | – | – | – | < 0.1
CC(=O)OCCC1=C(C(=O)O)N2C(=O)CC2S1 (racemic) [Example 13, Potassium (5RS)-2-(2-acetoxethyl)pen-2-em-3-carbolate] | – | 16 | 0.5 | 4 | 2 | 8 | 62 | – | – | – | – | – | – | – | – | – | 0.2
COCCC1=C(C(=O)[O-])N2C(=O)CC2S1.[Na+] (racemic) [Example 45, Sodium (5RS)-2-(2-methoxyethyl)pen-2-em-3-carboxylate] | – | – | – | – | – | – | – | – | 4 | 8 | 0.5 | 2 | 2 | 4 | < 0.1 | 8 | –
O=C([O-])C1=C(CCOC2CCCCO2)SC2CC(=O)N12.[K+] (racemic) [Example 43, Potassium (5RS)-2-[2-(tetrahydropyran-2-yloxy)ethyl]-pen-2-em-3-carboxylate] | – | – | – | – | – | – | – | > 500 | – | – | – | – | – | – | – | – | –
COCC1=C(C(=O)O)N2C(=O)CC2S1 (racemic) [Example 52, Potassium (5RS)-2-methoxymethylen-2-em-3-carboxylate] | 4 | 8 | 0.5 | 4 | 2 | 4 | 4 | – | – | – | – | – | – | – | – | – | 0.2
O=C(O)C1=C(CCO)SC2CC(=O)N12 (racemic) [Example 11, Potassium (5RS)-2-(2-hdroxethyl)pen-2-em-3-carboxylate] | 8 | 8 | 0.5 | 4 | 4 | 8 | 8 | – | – | – | – | – | – | – | – | – | < 0.1
NC(=O)OCCC1=C(C(=O)O)N2C(=O)CC2S1 (racemic) [Example 18, (5RS)-2-(2-Carbamoyloxethyl)pen-2-em-3-carboxlic acid] | 2 (≈ 7.74 µM) | 8 (≈ 31 µM) | < 0.1 | 2 (≈ 7.74 µM) | 2 (≈ 7.74 µM) | 4 (≈ 15.5 µM) | 4 (≈ 15.5 µM) | – | – | – | – | – | – | – | – | – | < 0.1
CNC(=O)OCCC1=C(C(=O)O)N2C(=O)CC2S1 (racemic) [Example 21] | 4 (≈ 14.7 µM) | 31 (≈ 114 µM) | 0.2 (≈ 0.735 µM) | 4 (≈ 14.7 µM) | 4 (≈ 14.7 µM) | 4 (≈ 14.7 µM) | 4 (≈ 14.7 µM) | – | – | – | – | – | – | – | – | – | < 0.1
